Measurements: ChEMBL document CHEMBL3593172, “4-(N-Phenyl-N'-substituted benzenesulfonyl)-6-(4-hydroxyphenyl)quinolines as inhibitors of mammalian target of rapamycin” (Bioorg Med Chem, 2015)

Key:
[1] = biological target: Serine/threonine-protein kinase mTOR (Homo sapiens) (UniProt P42345); test: Inhibition of mTOR (unknown origin) assessed as p70S6K phosphorylation after 30 mins by ELISA
HL-60 [2] = test: Cytotoxicity against human HL60 cells assessed as growth inhibition at 100 uM after 24 to 48 hrs by MTT assay relative to control; type: functional; details: read-out: GI
HepG2 [3] = test: Cytotoxicity against human HepG2 cells assessed as growth inhibition at 10 uM after 24 to 48 hrs by MTT assay relative to control; type: functional; details: read-out: GI
[4] = Cytotoxicity against human MIAPaCa2 cells assessed as growth inhibition at 10 uM after 24 to 48 hrs by MTT assay relative to control; type: functional; details: MIA PaCa-2, read-out: GI
[5] = Cytotoxicity against human MIAPaCa2 cells assessed as growth inhibition at 30 uM after 24 to 48 hrs by MTT assay relative to control; type: functional; details: MIA PaCa-2, read-out: GI
HCT-116 [6] = test: Cytotoxicity against human HCT116 cells assessed as growth inhibition at 100 uM after 24 to 48 hrs by MTT assay relative to control; type: functional; details: read-out: GI
HL-60 [7] = test: Cytotoxicity against human HL60 cells assessed as growth inhibition at 30 uM after 24 to 48 hrs by MTT assay relative to control; type: functional; details: read-out: GI
[8] = Cytotoxicity against human MIAPaCa2 cells assessed as growth inhibition at 100 uM after 24 to 48 hrs by MTT assay relative to control; type: functional; details: MIA PaCa-2, read-out: GI
PC-3 [9] = test: Cytotoxicity against human PC3 cells assessed as growth inhibition at 10 uM after 24 to 48 hrs by MTT assay relative to control; type: functional; details: read-out: GI
HepG2 [10] = test: Cytotoxicity against human HepG2 cells assessed as growth inhibition at 100 uM after 24 to 48 hrs by MTT assay relative to control; type: functional; details: read-out: GI
cells = details: Homo sapiens, MIA PaCa-2, 48 h
Description: Cytotoxicity against human MIAPaCa2 cells assessed as inhibition of cell proliferation after 48 hrs by MTT assay

PC-3 [11] = test: Cytotoxicity against human PC3 cells assessed as growth inhibition at 100 uM after 24 to 48 hrs by MTT assay relative to control; type: functional; details: read-out: GI
HCT-116 [12] = test: Cytotoxicity against human HCT116 cells assessed as growth inhibition at 10 uM after 24 to 48 hrs by MTT assay relative to control; type: functional; details: read-out: GI
PC-3 [13] = test: cells; details: Homo sapiens, PC-3, 48 h
Description: Cytotoxicity against human PC3 cells assessed as inhibition of cell proliferation after 48 hrs by MTT assay

HL-60 [14] = test: Cytotoxicity against human HL60 cells assessed as growth inhibition at 10 uM after 24 to 48 hrs by MTT assay relative to control; type: functional; details: read-out: GI
HL-60 [15] = test: cells; details: Homo sapiens, HL-60, 48 h
Description: Cytotoxicity against human HL60 cells assessed as inhibition of cell proliferation after 48 hrs by MTT assay

HepG2 [16] = test: Cytotoxicity against human HepG2 cells assessed as growth inhibition at 30 uM after 24 to 48 hrs by MTT assay relative to control; type: functional; details: read-out: GI
HCT-116 [17] = test: Cytotoxicity against human HCT116 cells assessed as growth inhibition at 30 uM after 24 to 48 hrs by MTT assay relative to control; type: functional; details: read-out: GI
HepG2 [18] = test: cells; details: Homo sapiens, HepG2, 48 h
Description: Cytotoxicity against human HepG2 cells assessed as inhibition of cell proliferation after 48 hrs by MTT assay

PC-3 [19] = test: Cytotoxicity against human PC3 cells assessed as growth inhibition at 30 uM after 24 to 48 hrs by MTT assay relative to control; type: functional; details: read-out: GI
HCT-116 [20] = test: cells; details: Homo sapiens, HCT-116, 48 h
Description: Cytotoxicity against human HCT116 cells assessed as inhibition of cell proliferation after 48 hrs by MTT assay

Row | SMILES | inhibition of growth at 100 µM (HL-60 [2]) | inhibition of growth at 10 µM (HepG2 [3]) | inhibition of growth at 10 µM [4] | inhibition of growth at 30 µM [5] | inhibition of growth at 100 µM (HCT-116 [6]) | inhibition of growth at 30 µM (HL-60 [7]) | inhibition of growth at 100 µM [8] | inhibition of growth at 10 µM (PC-3 [9]) | inhibition of growth at 100 µM (HepG2 [10]) | IC50 (cells) | inhibition of growth at 100 µM (PC-3 [11]) | inhibition of growth at 10 µM (HCT-116 [12]) | IC50 (PC-3 [13]) | inhibition of growth at 10 µM (HL-60 [14]) | IC50 (HL-60 [15]) | inhibition of growth at 30 µM (HepG2 [16]) | inhibition of growth at 30 µM (HCT-116 [17]) | IC50 (HepG2 [18]) | inhibition of growth at 30 µM (PC-3 [19]) | IC50 (HCT-116 [20]) | further results
1 | COC[C@H]1OC(=O)c2coc3c2[C@@]1(C)C1=C(C3=O)[C@@H]2CCC(=O)[C@@]2(C)C[C@H]1OC(C)=O |  |  |  |  |  |  |  |  |  |  |  |  |  |  |  |  |  |  |  |  | inhibition [1]: 100%
2 | O=[N+]([O-])c1cc(S(=O)(=O)N(c2ccccc2)c2ccnc3ccc(-c4ccc(O)cc4)cc23)ccc1C(F)(F)F | 93% | 3% | 45% | 60% | 29% | 92% | 79% | 39% | 8% | 16 µM | 84% | 20% | 18 µM | 90% | < 10 µM | 3% | 23% | > 100 µM | 68% | > 100 µM | 
3 | O=S(=O)(c1ccccc1)N(c1ccccc1)c1ccnc2ccc(-c3ccc(O)cc3)cc12 | 91% | 40% | 80% | 84% | 89% | 89% | 87% | 15% | 91% | < 10 µM | 76% | 8% | 25 µM | 87% | < 10 µM | 90% | 57% | 12 µM | 61% | 28 µM | 
4 | N#Cc1ccc(S(=O)(=O)N(c2ccccc2)c2ccnc3ccc(-c4ccc(O)cc4)cc23)cc1 | 78% | 1% | 16% | 21% | 36% | 30% | 64% | 9% | 34% | 78 µM | 19% | 5% | > 100 µM | 12% | 58 µM | 1% | 21% | > 100 µM | 10% | > 100 µM | 
5 | Cc1c(C)c(C)c(S(=O)(=O)N(c2ccccc2)c2ccnc3ccc(-c4ccc(O)cc4)cc23)c(C)c1C | 15% | 1% | 16% | 17% | 24% | 8% | 22% | 12% | 10% | > 100 µM | 15% | 14% | > 100 µM | 5% | > 100 µM | 2% | 15% | > 100 µM | 14% | > 100 µM | 
6 | COc1ccc(S(=O)(=O)N(c2ccccc2)c2ccnc3ccc(-c4ccc(O)cc4)cc23)cc1 | 89% | 20% | 63% | 81% | 79% | 87% | 86% | 15% | 86% | < 10 µM | 61% | 10% | 65 µM | 63% | < 10 µM | 78% | 39% | 20 µM | 39% | 50 µM | 
7 | Nc1ccc(S(=O)(=O)N(c2ccccc2)c2ccnc3ccc(-c4ccc(O)cc4)cc23)cc1 | 92% | 59% | 64% | 84% | 88% | 81% | 85% | 30% | 71% | 8 µM | 84% | 33% | 45 µM | 66% | 5 µM | 70% | 54% | 9 µM | 40% | 28 µM | 
